Source: US11766468B2, “Method of treating prostate cancer with GnRH antagonist” (priority 2012, dated 2023)
“And” between values parts separate entries of the source, which are not always exact repeats. Equal values may be shown once. Marks after values point to notes of the source that are not given here. Square brackets hold non-standard residues; d marks the D form. Peptide text beside a SMILES is read from it. * marks the point of attachment. dPhe(4-NHCONH2) = NC(=O)Nc1ccc(C[C@@H](N)C(=O)O)cc1; Dihydroorotyl(S) = O=C1C[C@@H](C(=O)*)NC(=O)N1; dPhe(4-Cl) = N[C@H](Cc1ccc(Cl)cc1)C(=O)O; Phe(4-NH2) = Nc1ccc(C[C@H](N)C(=O)O)cc1; d2Nal = N[C@H](Cc1ccc2ccccc2c1)C(=O)O; Lys(iPr) = CC(C)NCCCC[C@H](N)C(=O)O; d3Pal = N[C@H](Cc1cccnc1)C(=O)O

Assay: CS21 safety: treatment-emergent adverse events (MedDRA SOC/PT), crude incidence, also by subgroup
Format: in vivo
Method: The safety variables for this study were assessed on the following: the frequency and severity of adverse events (AEs); the presence of clinically significant changes in laboratory parameters (clinical chemistry, hematology and urinalysis); changes in electrocardiograms (ECGs) and vital signs; changes detected by physical examination; and body weight.
An AE was therefore any unfavorable or unintended sign (including an abnormal laboratory finding), symptom or disease temporally associated with the use of the product, whether or not related to the IMP.
An adverse drug reaction (ADR) was defined as an AE evaluated by the investigator as being probably or possibly related to treatment with the IMP.
AEs were graded according to the National Cancer Institute (NCI) Common Terminology Criteria for Adverse Events (CTCAE). In accordance with the CTCAE criteria, AEs were rated on a five-point scale corresponding to mild, moderate, severe, life-threatening or disabling and death. For those AEs not described in the CTCAE, a separate five-point rating scale was used for rating of the intensity of AEs as follows below:
Safety parameters were evaluated for all patients included in the ITT analysis set, comprising all 610 randomized patients who received at least one dose of study medication. All safety tables include four columns: the three treatment groups described separately, and the pooled degarelix group.
Adverse events were regarded as ‘treatment-emergent’ if they occurred in the time interval from initial dosing to end-of-study. Adverse events were considered ‘pre-treatment’ if they occurred between screening and the initial injections of IMP. As described above, all AEs were classified according to MedDRA (version 10.0) system organ class (SOC), sorted alphabetically, and by preferred term (PT), in decreasing frequency of occurrence. Treatment-emergent AEs were expressed in terms of intensity (using NCI CTCAE) and relationship to study drug.
Using the results from the summary of clinical efficacy (SCE) and summary of clinical safety (SCS) findings, different patient subgroups were analyzed. Subgroup distinguishers included race (white, black, and other), age (<65 years, […], and >75 years), weight (<70 kg, ≥70−<90 kg, and ≥90 kg), body mass index (BMI) (≤20, >20 to 30, and >30 kg/m^2)), region (North-America, Western Europe, Central and Eastern Europe and Other), and stage of prostate cancer (e.g., localized, locally advanced, and metastatic).

[1] = degarelix Total (pooled), leuprolide 7.5 mg
[2] = degarelix Total (pooled), leuprolide 7.5 mg, listed as degarelix
[3] = degarelix pooled, LUPRON DEPOT 7.5 mg
[4] = degarelix pooled, LUPRON DEPOT 7.5 mg, listed as degarelix
[5] = pooled degarelix, leuprolide 7.5 mg

CC(=O)N[C@H](Cc1ccc2ccccc2c1)C(=O)N[C@H](Cc1ccc(Cl)cc1)C(=O)N[C@H](Cc1cccnc1)C(=O)N[C@@H](CO)C(=O)N[C@@H](Cc1ccc(NC(=O)[C@@H]2CC(=O)NC(=O)N2)cc1)C(=O)N[C@H](Cc1ccc(NC(N)=O)cc1)C(=O)N[C@@H](CC(C)C)C(=O)N[C@@H](CCCCNC(C)C)C(=O)N1CCC[C@H]1C(=O)N[C@H](C)C(N)=O [Degarelix, D-Alaninamide, N-acetyl-3-(2-naphthalenyl)-D-alanyl-4-chloro-D-phenylalanyl-3-(3-pyridinyl)-D-alanyl-L-seryl-4-[[[(4S)-hexahydro-2,6-dioxo-4-pyrimidinyl]carbonyl]amino]-L phenylalanyl-4-[(aminocarbonyl)amino]-D-phenylalanyl-L leucyl-N6-(1-methylethyl)-L-lysyl-L-prolyl] (Ac-[d2Nal][dPhe(4-Cl)][d3Pal]S[Phe(4-NH2)](Dihydroorotyl(S))[dPhe(4-NHCONH2)]L[Lys(iPr)]P[dA]-NH2)
Ear & labyrinth disorders, % of patients [1]: ( 2%)
Endocrine disorders, % of patients [1]: ( 1%)
Eye disorders, % of patients [1]: ( 2%)
Fatigue, % of patients [1]: ( 5%)
Gastrointestinal disorders, % of patients [1]: (17%)
General disorders & administration site conditions, % of patients [1]: (47%)
Hepatobiliary disorders, % of patients [1]: (<1%)
Hot flush, % of patients [1]: (26%)
Hypercholesterolaemia, % of patients [1]: ( 5%)
Hypertension, % of patients [1]: ( 6%)
Immune system disorders, % of patients [1]: (<1%)
Infections & infestations, % of patients [1]: (20%)
Injection site pain, % of patients [1]: (29%)
Injury, poisoning & procedural complications, % of patients [1]: ( 5%)
Metabolism & nutrition disorders, % of patients [1]: (10%)
Nausea, % of patients [1]: ( 5%)
Neoplasms benign, malignant & unspecified, % of patients [1]: ( 5%)
Nervous system disorders, % of patients [1]: (12%)
Psychiatric disorders, % of patients [1]: ( 8%)
Renal & urinary disorders, % of patients [1]: (13%)
Respiratory, thoracic & mediastinal disorders, % of patients [1]: (10%)
Serious AEs, % of patients [1]: 11%
Serious AEs, E events [1]: 67
Serious AEs, N patients [1]: 45
Skin & subcutaneous tissue disorders, % of patients [1]: (10%)
Vascular disorders, % of patients [1]: (33%)
Weight increased, % of patients [1]: (10%)
Arthralgia, % of patients [2]: 4% and 4.2%
Back pain, % of patients [2]: 6%
Cardiac disorders, % of patients [2]: 9%
Gastrointestinal disorders, % of patients [2]: 17%
General disorders & administration site conditions, % of patients [2]: 47%
Infections & infestations, % of patients [2]: 20%
Injection site pain, % of patients [2]: 29%
Investigations, % of patients [2]: 27%
Musculoskeletal & connective tissue disorders, % of patients [2]: 17%
Renal & urinary disorders, % of patients [2]: 13%
Reproductive system & breast disorders, % of patients [2]: 5%
Treatment-emergent adverse events (all AEs), % of patients [2]: 81%
Urinary tract infection, % of patients [2]: 3%
Vascular disorders, % of patients [2]: 33%
Myocardial Infarction (PT), % of patients (degarelix combined, LUPRON DEPOT 7.5 mg): 0.5%
Deep vein thrombosis, N patients (degarelix pooled): 0
Libido decreased, N patients (degarelix pooled): 0
Cardiac murmur, % of patients [3]: 0%
Chest pain, % of patients [3]: (<1%)*
Cystitis noninfective, % of patients [3]: 0%
Deep vein thrombosis, % of patients [3]: 0%
Erectile dysfunction, % of patients [3]: (1%)*
Libido decreased, % of patients [3]: 0%
Musculoskeletal stiffness, % of patients [3]: 0%
Myocardial ischaemia, % of patients [3]: (<1%)*
Oedema peripheral, % of patients [3]: (2%)*
Urinary retention, % of patients [3]: (1%)*
Chest pain, % of patients [4]: 0.5%
Erectile dysfunction, % of patients [4]: 1% and 1.5%
Oedema peripheral, % of patients [4]: 2%
Urinary retention, % of patients [4]: 1.2%
discontinuations due to injection site adverse events (degarelix s.c., 12 months): < 1%
immediate onset hypersensitivity reactions (in vivo): no immediate onset hypersensitivity reactions
ADRs: general disorders and administration site conditions including injection-site reactions, % of patients (pooled degarelix): 42%
Gynaecomastia, prostatitis or testicular atrophy (each), % of patients (pooled degarelix): 2%
Hyperhidrosis, % of patients (pooled degarelix): < 1%
Night sweats, % of patients (pooled degarelix): 1%
Pelvic pain, % of patients (pooled degarelix): < 1%
Sweating disorders, % of patients (pooled degarelix): approximately 1%
Testicular pain, % of patients (pooled degarelix): < 1%
incidence of all other injection site preferred terms (pooled degarelix): ≤ 0.5 per 100 injections
incidence of injection site erythema (pooled degarelix): 1.9 per 100 injections
incidence of injection site pain (pooled degarelix): 2.9 per 100 injections
incidence of treatment-emergent injection site reactions (pooled degarelix): 4.4 per 100 injections
injection site reactions which led to withdrawal, % of patients (pooled degarelix): 1.2%
patients with SAEs that led to withdrawal, number (pooled degarelix): 17
Hot flushes reported as ADR, % of patients [5]: 25%
SAEs: cardiac disorders, % of patients [5]: 2%
SAEs: renal and urinary disorders, % of patients [5]: 2%
